In ChEMBL document CHEMBL3217565, “Conformational effects on potency of thioimidazoles and dihydrothiazolines” (Medchemcomm, 2011):

Experiments:
[1] = biological target: T1, Mitogen-activated protein kinase 14 (Homo sapiens, UniProt Q16539); test: Inhibition of p38-alpha MAPK (unknown origin) after 3 hrs
[2] = biological target: T1, Mitogen-activated protein kinase 14; test: Ratio of SB203580 IC50 to compound IC50 for p38-alpha MAPK (unknown origin)

T1 sequence (Q16539 whole entry): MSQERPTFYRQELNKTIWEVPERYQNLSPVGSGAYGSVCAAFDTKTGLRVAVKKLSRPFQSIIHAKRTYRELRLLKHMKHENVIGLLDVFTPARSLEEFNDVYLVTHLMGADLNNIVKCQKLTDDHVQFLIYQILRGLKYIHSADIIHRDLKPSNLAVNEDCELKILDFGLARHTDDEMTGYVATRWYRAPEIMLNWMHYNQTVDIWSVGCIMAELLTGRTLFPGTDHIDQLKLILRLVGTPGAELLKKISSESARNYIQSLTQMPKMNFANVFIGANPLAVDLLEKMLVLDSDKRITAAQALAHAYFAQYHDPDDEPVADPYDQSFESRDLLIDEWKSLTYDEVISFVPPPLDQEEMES

Structure (SMILES) | IC50 [1] | Ratio IC50 [2]
CSc1nc(-c2ccc(F)cc2)c(-c2ccnc(NC(=O)c3ccc(C)c(F)c3)c2)n1C | 411 nM | 0.1
CSc1nc(-c2ccc(F)cc2)c(-c2ccnc(NC(=O)c3ccccc3)c2)n1C | 337 nM | 0.18
CSc1nc(-c2ccc(F)cc2)c(-c2ccnc(NC(=O)Cc3ccc(F)cc3)c2)[nH]1 |  | 3.55
CSc1nc(-c2ccc(F)cc2)c(-c2ccnc(NC(=O)c3cc4ccccc4o3)c2)n1C | 430 nM | 0.1
CSc1nc(-c2ccc(F)cc2)c(-c2ccnc(NC(=O)Cc3ccc(F)cc3)c2)n1C |  | 0.24
CSc1nc(-c2ccc(F)cc2)c(-c2ccnc(NC(=O)c3cc4ccccc4o3)c2)[nH]1 |  | 0.7
O=C(Nc1cc(-c2c(-c3ccc(F)cc3)nc3n2CCS3)ccn1)c1ccco1 | 140 nM | 0.63
CSc1nc(-c2ccc(F)cc2)c(-c2ccnc(NC(=O)C3CC3c3ccccc3)c2)n1C (stereo not drawn) | 186 nM | 0.22
CSc1nc(-c2ccc(F)cc2)c(-c2ccnc(NC(=O)c3ccc(C)c(F)c3)c2)[nH]1 |  | 1.93
CSc1nc(-c2ccc(F)cc2)c(-c2ccnc(NC(=O)c3ccco3)c2)n1C | 173 nM | 0.35
O=C(Cc1ccc(F)cc1)Nc1cc(-c2c(-c3ccc(F)cc3)nc3n2CCS3)ccn1 | 46 nM | 1.93
CSc1nc(-c2ccc(F)cc2)c(-c2ccnc(NC(=O)c3ccco3)c2)[nH]1 |  | 1.46
CSc1nc(-c2ccc(F)cc2)c(-c2ccnc(NC(=O)Cc3ccccc3)c2)n1C | 498 nM | 0.05
CSc1nc(-c2ccc(F)cc2)c(-c2ccnc(NC(=O)c3ccc(F)cc3)c2)n1C | 396 nM | 0.16
O=C(Nc1cc(-c2c(-c3ccc(F)cc3)nc3n2CCS3)ccn1)c1cc2ccccc2o1 | 115 nM | 0.77
O=C(Nc1cc(-c2c(-c3ccc(F)cc3)nc3n2CCS3)ccn1)c1ccccc1 | 83 nM | 0.89

Continued, values first:

IC50 [1] | Ratio IC50 [2] | Structure (SMILES)
44 nM | 0.61 | CSc1nc(-c2ccc(F)cc2)c(-c2ccnc(NC(=O)c3ccc(F)cc3)c2)[nH]1
29 nM | 0.96 | Cc1ccc(C(=O)Nc2cc(-c3c(-c4ccc(F)cc4)nc4n3CCS4)ccn2)cc1F
19 nM | 1.36 | CSc1nc(-c2ccc(F)cc2)c(-c2ccnc(NC(=O)c3ccccc3)c2)[nH]1
36 nM | 1.44 | O=C(Nc1cc(-c2c(-c3ccc(F)cc3)nc3n2CCS3)ccn1)c1ccc(F)cc1
20 nM | 1.85 | CSc1nc(-c2ccc(F)cc2)c(-c2ccnc(NC(=O)C3CC3c3ccccc3)c2)[nH]1 (stereo not drawn)
46 nM | 0.97 | O=C(Cc1ccccc1)Nc1cc(-c2c(-c3ccc(F)cc3)nc3n2CCS3)ccn1
22 nM | 1.23 | CSc1nc(-c2ccc(F)cc2)c(-c2ccnc(NC(=O)Cc3ccccc3)c2)[nH]1
20 nM | 1.4 | O=C(Nc1cc(-c2c(-c3ccc(F)cc3)nc3n2CCS3)ccn1)C1CC1c1ccccc1 (stereo not drawn)
